Columns and labels:
K562 [1] = experiment: Induction of apoptosis in human K562 cells assessed as decrease in Bcl-2 level incubated for 24 hrs by Western blot analysis; assay type: functional, cell-based; details: dose 2-8 nM
K562 [2] = experiment: Inhibition of mitochondrial membrane potential in human K562 cells assessed as green fluorescence intensity at 4 nM incubated for 48 hrs by JC-1 staining based flow cytometry (reference value: 6.63 +/- 0.27 %); assay type: functional
K562 [3] = experiment: Induction of apoptosis in human K562 cells assessed as late apoptotic cells at 2 nM incubated for 48 hrs by Annexin V/PI staining based flow cytometry (reference value: 3.37 +/- 0.21 %); assay type: functional
K562 [4] = experiment: Induction of apoptosis in human K562 cells assessed as decrease in Bcl-xL level incubated for 24 hrs by Western blot analysis; assay type: functional, cell-based; details: dose 2-8 nM

C=C(c1ccc(OC)c(OC(F)C(=O)NO)c1)c1cc(C)nc2ccccc12 (centres undefined)
Activity (K562 [1]): Dose-Dependent Effect | Flu intensity (K562 [2]): 31.75% | Activity (K562 [3]): 3.94% | Activity (K562 [4]): Dose-Dependent Effect
